The values that follow come from patent US20180296623A1, “PHARMACEUTICAL COMPOSITION FOR PROMOTING PERIODONTAL TISSUE GROWTH AND FOR PREVENTION AND TREATMENT OF PERIODONTITIS, CONTAINING MAGNOLIA FLOWER EXTRACT, FRACTION THEREOF OR COMPOUND ISOLATED THEREFROM AS ACTIVE INGREDIENT” (OKINAWA RESEARCH CENTER CO., LTD., priority 2015, published 2018).

The structures appear in SMILES notation.

This assay concerns dental root or periodontal tissue. The assay is described as follows: Transplantation of mouse molar embedded in agarose beads containing fargesin into host mouse kidney capsule; micro CT. It counts as in vivo, C57BL/6 mouse. As to conditions: beads soaked in 80 μm fargesin in PBS, molar of 5-day-old mouse grafted into kidney capsule of 8-week-old host mouse, 3 weeks, vs PBS control. The procedure:
The following experiment was performed in order to investigate the promoting effect of the fargesin isolated from the Magnolia flower extract on the growth of dental root or periodontal tissue.
Particularly, the fargesin obtained in Example 1 was diluted in PBS (Dainippon Pharmaceuticals Inc., Japan) at the final concentration of 80 μm, and four agarose beads (Affi-Gel Blue Gel, #153-7301, Bio-Rad Laboratories Inc., Japan) were washed with PBS, followed by reaction for at least 60 minutes to allow the fargesin to be absorbed in those beads. For the control, 4 other beads were reacted only with PBS. A 5-day-old C57BL/6 mouse (Sankyo Labo Service Corporation, Japan) was sacrificed, from which molars were extracted from the lower jaws. Dental pulp of the extracted molar was embedded in the agarose beads containing fargesin. For the control, dental pulp of the extracted molar was embedded in the agarose beads containing PBS alone. The agarose beads were each grafted into capsules of the 8-week-old C57BL/6 host mouse (female, Sankyo Labo Service Corporation, Japan) kidneys. The host mice were raised in the conditions of 12 h/12 h light and dark cycle, room temperature, and free feeding. 3 weeks later, the mice were sacrificed, from which the kidneys were extracted. Then, the teeth were observed. The 3D image of the teeth was taken by micro CT (Rigaku R_mCT2).

For `COc1ccc([C@@H]2OC[C@H]3[C@@H]2CO[C@@H]3c2ccc3c(c2)OCO3)cc1OC` [fargesin], the “formation of alveolar bone around the grafted tooth” value is “observed” and the “growth of dental root” value was “significant”.
